Experimental data as given in patent US10933053B2, “Treating infections with ceftolozane/tazobactam in subjects having impaired renal function” (MERCK SHARP & DOHME CORP., priority 2013, dated 2021).

Assays:
clinical = settings: both, human, in vivo, 750 mg
Method: This was a Phase 1, multicenter, prospective, open-label study of 750 mg ceftolozane/tazobactam (as CXA-201) administered IV in male and female adult subjects with severe renal impairment (estimated CLCR<30 mL/min) and subjects with end-stage renal disease (ESRD) on hemodialysis (HD). The primary objective of the study was to determine the PK profile of ceftolozane/tazobactam in subjects with severe renal impairment and subjects with ESRD on HD and to determine the effect of HD on the clearance of ceftolozane/tazobactam.
Subjects with severe renal impairment received a single IV 1-hour infusion of 750 mg ceftolozane/tazobactam on Day 1. […] Subjects in this cohort received an IV dose of 750 mg ceftolozane/tazobactam as a 1 hour infusion immediately after their first HD session on Day 1 (post dialysis, approximately 72 hours prior to the next HD session) and a second dose of ceftolozane/tazobactam approximately 2 hours before their second HD session on Day 4 of the study. Infusion of ceftolozane/tazobactam was completed approximately 1 hour before the start of HD.
Subjects in both cohorts had urine (if not anuric) and plasma samples collected for determination of levels of ceftolozane, tazobactam and the M1 metabolite of tazobactam; subjects in the ESRD on HD cohort also had dialysate fluid samples collected for PK assessment. Plasma, urine, and dialysate levels of ceftolozane, tazobactam, and its metabolite M1 collected over a prespecified interval were determined by LC/MS/MS assay.

[1] = threshold = 1/2 of the TOL/TAZ MIC; cited from earlier work
human plasma proteins = experiment: Binding to human plasma proteins; type: in vitro ADME

Row | AUC(0-inf) (clinical) [µg·h/mL] | AUC(0-t) (clinical) [µg·h/mL] | Vd (clinical) [L] | clearance (clinical) [mL/min] | half-life (clinical) [min] | SMILES | free-drug % T>threshold target [1] | binding to human plasma proteins (human plasma proteins) [%]
1 | 537 | 511 | 13.8 | 16.7 | 666 | Cn1c(N)c(NC(=O)NCCN)c[n+]1CC1=C(C(=O)O)N2C(=O)[C@@H](NC(=O)/C(=N\OC(C)(C)C(=O)O)c3nsc(N)n3)[C@H]2SC1 [Ceftolozane, (6R,7R)-3-[(5-amino-4-{[(2-aminoethyl)carbamoyl]amino}-1-methyl-1H-pyrazol-2-ium-2-yl)methyl]-7-({(2Z)-2-(5-amino-1,2,4-thiadiazol-3-yl)-2-[(1-carboxy-1-methylethoxy)imino]acetyl}amino)-8-oxo-5-thia-1-azabicyclo[4.2.0]oct-2-ene-2-carboxylate] |  | 
2 |  |  |  |  |  | C[C@]1(Cn2ccnn2)[C@H](C(=O)O)N2C(=O)C[C@H]2S1(=O)=O [Tazobactam, tazobactam] | 65.9 | ~30
